Laboratory results published in ChEMBL document CHEMBL3797190, “Development of 3,5-Dinitrobenzylsulfanyl-1,3,4-oxadiazoles and Thiadiazoles as Selective Antitubercular Agents Active Against Replicating and Nonreplicating Mycobacterium tuberculosis” (J Med Chem, 2016).
In brackets after ≈: the same amount, converted by molar mass.

Legend:
[1] = test system: Mycobacterium tuberculosis; assay: Antimycobacterial activity against multi drug resistant Mycobacterium tuberculosis Praha 4 after 14 days by microdilution method; conditions: Praha 4, 336 h
[2] = test system: Mycobacterium tuberculosis; assay: Antimycobacterial activity against multi drug resistant Mycobacterium tuberculosis Praha 131 after 14 days by microdilution method; format: functional; conditions: for MIC99: Praha 131, 336 h
[3] = test system: Mycobacterium tuberculosis; assay: Antimycobacterial activity against multi drug resistant Mycobacterium tuberculosis 8666/2010 after 14 days by microdilution method; format: functional; conditions: for MIC99: 8666/2010, 336 h
[4] = test system: Mycobacterium tuberculosis; assay: Antimycobacterial activity against multi drug resistant Mycobacterium tuberculosis 9449/2007 after 14 days by microdilution method; format: functional; conditions: for MIC99: 9449/2007, 336 h
[5] = test system: Mycobacterium tuberculosis; assay: Antimycobacterial activity against multi drug resistant Mycobacterium tuberculosis 8666/2010 after 21 days by microdilution method; format: functional; conditions: 8666/2010, 504 h
[6] = test system: Mycobacterium tuberculosis; assay: Antimycobacterial activity against multi drug resistant Mycobacterium tuberculosis Praha 1 after 14 days by microdilution method; format: functional; conditions: for MIC99: Praha 1, 336 h
[7] = test system: Mycobacterium tuberculosis; assay: microbe, parasite or virus in culture; conditions: 234/2005, 336 h
[8] = test system: Mycobacterium tuberculosis; assay: Antimycobacterial activity against multi drug resistant Mycobacterium tuberculosis Praha 131 after 21 days by microdilution method; format: functional; conditions: Praha 131, 504 h
[9] = test system: Mycobacterium tuberculosis; assay: Antimycobacterial activity against multi drug resistant Mycobacterium tuberculosis 9449/2007 after 21 days by microdilution method; format: functional; conditions: 9449/2007, 504 h
[10] = test system: Mycobacterium tuberculosis; assay: Antimycobacterial activity against multi drug resistant Mycobacterium tuberculosis Praha 4 after 21 days by microdilution method; format: functional; conditions: Praha 4, 504 h
[11] = test system: Mycobacterium tuberculosis; assay: Antimycobacterial activity against multi drug resistant Mycobacterium tuberculosis 234/2005 after 21 days by microdilution method; format: functional; conditions: 234/2005, 504 h
[12] = test system: Mycobacterium tuberculosis; assay: Antimycobacterial activity against multi drug resistant Mycobacterium tuberculosis Praha 1 after 21 days by microdilution method; format: functional; conditions: Praha 1, 504 h

Compound | MIC99 [1] [µM] | MIC99 [2] [µM] | MIC99 [3] [µM] | MIC99 [4] [µM] | MIC99 [5] [µM] | MIC99 [6] [µM] | MIC99 [7] [µM] | MIC>99 [2] [µM] | MIC>99 [6] [µM] | MIC>99 [3] [µM] | MIC>99 [4] [µM] | MIC99 [8] [µM] | MIC99 [9] [µM] | MIC99 [10] [µM] | MIC99 [11] [µM] | MIC99 [12] [µM]
CC1COc2c(N3CCN(C)CC3)c(F)cc3c(=O)c(C(=O)O)cn1c23 (stereo unspecified) [OFLOXACIN] | > 16 | – | – | – | – | – | – | – | – | – | – | – | – | – | – | –
CN[C@@H]1[C@H](O[C@H]2[C@H](O[C@H]3[C@H](O)[C@@H](O)[C@H](N=C(N)N)[C@@H](O)[C@@H]3N=C(N)N)O[C@@H](C)[C@]2(O)C=O)O[C@@H](CO)[C@H](O)[C@H]1O [STREPTOMYCIN] | > 32 | > 32 | > 32 | > 32 | – | – | – | – | – | – | – | – | – | – | – | –
NCC[C@H](O)C(=O)N[C@@H]1C[C@H](N)[C@@H](O[C@H]2O[C@H](CN)[C@@H](O)[C@H](O)[C@H]2O)[C@H](O)[C@H]1O[C@H]1O[C@H](CO)[C@@H](O)[C@H](N)[C@H]1O [AMIKACIN] | – | > 32 | – | – | – | – | – | – | – | – | – | – | – | – | – | –
COc1ccc(-c2nnc(SCc3cc([N+](=O)[O-])cc([N+](=O)[O-])c3)o2)cc1 | 0.06 (≈ 0.0233 µg/mL) | 0.06 (≈ 0.0233 µg/mL) | 0.06 (≈ 0.0233 µg/mL) | 0.06 (≈ 0.0233 µg/mL) | 0.06 (≈ 0.0233 µg/mL) | 0.06 (≈ 0.0233 µg/mL) | 0.06 (≈ 0.0233 µg/mL) | – | – | – | – | – | – | – | – | –
O=[N+]([O-])c1cc(CSc2nnc(-c3ccccc3)o2)cc([N+](=O)[O-])c1 | ≤ 0.03 | ≤ 0.03 | ≤ 0.03 | – | – | – | ≤ 0.03 | – | – | – | – | – | – | – | – | –
CO[C@H]1/C=C/O[C@@]2(C)Oc3c(C)c(O)c4c(O)c(c(/C=N/N5CCN(C)CC5)c(O)c4c3C2=O)NC(=O)/C(C)=C\C=C\[C@H](C)[C@H](O)[C@@H](C)[C@@H](O)[C@@H](C)[C@H](OC(C)=O)[C@@H]1C [RIFAMPIN] | > 8 | > 8 | > 8 | > 8 | – | > 8 | > 8 | – | – | – | – | – | – | – | – | –
GENTAMICIN | – | – | – | – | – | – | – | > 8 | 1 | 2 | 1 | – | – | – | – | –
COc1ccc(-c2nnc(SCc3cc([N+](=O)[O-])cc([N+](=O)[O-])c3)s2)cc1 | 0.125 (≈ 0.0506 µg/mL) | 0.125 (≈ 0.0506 µg/mL) | 0.06 (≈ 0.0243 µg/mL) | 0.125 (≈ 0.0506 µg/mL) | 0.125 (≈ 0.0506 µg/mL) | 0.125 (≈ 0.0506 µg/mL) | 0.125 (≈ 0.0506 µg/mL) | – | – | – | – | 0.25 (≈ 0.101 µg/mL) | 0.25 (≈ 0.101 µg/mL) | 0.25 (≈ 0.101 µg/mL) | 0.25 (≈ 0.101 µg/mL) | 0.25 (≈ 0.101 µg/mL)
O=[N+]([O-])c1cc(CSc2nnc(-c3ccc(Cl)cc3)s2)cc([N+](=O)[O-])c1 | 0.25 (≈ 0.102 µg/mL) | 0.5 (≈ 0.204 µg/mL) | 0.25 (≈ 0.102 µg/mL) | 0.25 (≈ 0.102 µg/mL) | 0.5 (≈ 0.204 µg/mL) | 0.25 (≈ 0.102 µg/mL) | 0.5 (≈ 0.204 µg/mL) | – | – | – | – | 0.5 (≈ 0.204 µg/mL) | 0.5 (≈ 0.204 µg/mL) | 0.5 (≈ 0.204 µg/mL) | 0.5 (≈ 0.204 µg/mL) | 0.5 (≈ 0.204 µg/mL)
